Results published in patent US20230226021A1, “ORAL FORMULATIONS OF PYRROLIDINE DERIVATIVES” (ObsEva S.A., priority 2013, published 2023).

Test: Qualitative solubility/crystallisation tests on 15 mg scale
Type: physicochemical
From the text: The E/Z ratio pre and post dry-flash remain in the range of 30/70 to 40/60. Furthermore, such an approach should be considered on the basis of the scale at which the operation has to be carried out. On a 20 L scale, this operation would not be a time saving approach.

Compound: CO/N=C1/C[C@@H](CO)N(C(=O)c2ccc(-c3ccccc3C)cc2)C1 [(3Z,5S), (3Z,5S)-5-(hydroxymethyl)-1-[(2′-methyl-1,1′-biphenyl-4-yl)carbonyl]pyrrolidin-3-one-O-methyloxime]
- Qualitative solubility, Dissolves in (DIPE, hot): 40 vol hot
- Qualitative solubility, Dissolves in (IPA, hot): 4 vol hot
- Qualitative solubility, Dissolves in (MIBK, hot): 4 vol hot
- Qualitative solubility, Dissolves in (THF, cold): 4 vol cold
- Qualitative solubility, Dissolves in / Comment (heptanes): insoluble in 20 vol
- Qualitative solubility, Dissolves in (tBuOH, hot): 6 vol hot
- Qualitative solubility, Dissolves in (toluene, cold): 2 vol cold
